pIC50: −log10 of the molar value. Read-outs that look alike come from different tables or passages of the source.
Tested on: NCI-H1975 (EGFR-L858R-T790M) cells
Assay: Inhibitory activity on proliferation of NCI-H1975 (EGFR-L858R-T790M) cells (CTG, 72 h)
Format: cell-based
Details: Homo sapiens
Procedure: NCI-H1975 (EGFR-L858R-T790M) and A431 (EGFR-WT) cells were purchased from ATCC and cultured in an incubator at 37° C. with 5% CO2, and the culture mediums were RPMI1640+10% FBS and DMEM+10% FBS, respectively. On the first day, NCI-H1975 (EGFR-L858R-T790M) and A431 (EGFR-WT) cells in the logarithmic phase were collected, and viable cells were counted using an automatic cell analyzer (countstar). The cell suspensions were adjusted with the culture mediums and plated on a 96-well cell culture plate at 1000 cells/well for NCI-H1975 (EGFR-L858R-T790M) cells and at 3000 cells/well for A431 cells. The next day, the culture mediums were aspirated, and 90 μL of fresh culture mediums and 10 μL of the compounds at different concentrations were added to each well, wherein the final concentration of DMSO in each well was 0.1%. The plate was cultured in the incubator at 37° C. with 5% CO2 for 72 hours. After 72 hours of drug treatment, 50 μL of CTG solution (promega, G7572), which was already pre-melted and equilibrated to room temperature, was added to each well, and the mixtures were uniformly mixed for 2 min using a microplate shaker. The plate was placed at room temperature for 10 min, and then […] signal values were measured using a microplate reader (PHERAstar FSX).
Surviving cells % was calculated based on Vsample/Vvehicle control×100%, wherein Vsample was the readout of the drug-treated group, and Vvehicle control was the average value of the vehicle control group. Using the origin 9.2 software and nonlinear regression model, S-shaped dose-survival curves were plotted, and IC50 values were calculated.

[1] = read-out: IC50 (value in brackets)

| pIC50 (read-out: IC50 (class symbol)) | pIC50 [1] | Compound |
| --- | --- | --- |
| 6.30 to 7.00 | 6.50 | COc1cc(N2CCN(Cc3cccc(NC4CCC(=O)NC4=O)c3)CC2)c(-c2cnn(C)c2)cc1Nc1ncc(Br)c(Nc2ccc(-c3ccccc3)cc2P(C)(C)=O)n1 (stereo not drawn) [Compound 74, 3-((3-((4-(4-((5-bromo-4-((3-(dimethylphosphoryl)-[1,1′-biphenyl]-4-yl)amino)pyrimidin-2-yl)amino)-5-methoxy-2-(1-methyl-1H-pyrazol-4-yl)phenyl)piperazin-1-yl)methyl)phenyl)amino)piperidine-2,6-dione] |
| > 7.00 | 7.11 | COc1cc(N2CCC3(CC2)CN(CC2CCN(c4cc5c(cc4F)C(=O)N(C4CCC(=O)NC4=O)C5=O)CC2)C3)c(-c2cnn(C)c2)cc1Nc1ncc(Cl)c(Nc2ccc(-c3ccccc3)cc2P(C)(C)=O)n1 (stereo not drawn) [Compound 94, 5-(4-((7-(4-((5-chloro-4-((3-(dimethylphosphoryl)-[1,1′-biphenyl]-4-yl)amino)pyrimidin-2-yl)amino)-5-methoxy-2-(1-methyl-1H-pyrazol-4-yl)phenyl)-2,7-diazaspiro[3.5]nonan-2-yl)methyl)piperidin-1-yl)-2-(2,6-dioxopiperidin-3-yl)-6-fluoroisoindoline-1,3-dione] |
| > 7.00 | 7.22 | COc1cc(N2CCC(N3CCN(c4ccc5c(c4)C(=O)N(C4CCC(=O)NC4=O)C5=O)CC3)CC2)c(-c2cnn(C)c2)cc1Nc1ncc(Br)c(Nc2ccccc2P(C)(C)=O)n1 (stereo not drawn) [Compound 114, 5-(4-(1-(4-((5-bromo-4-((2-(dimethylphosphoryl)phenyl)amino)pyrimidin-2-yl)amino)-5-methoxy-2-(1-methyl-1H-pyrazol-4-yl)phenyl)piperidin-4-yl)piperazin-1-yl)-2-(2,6-dioxopiperidin-3-yl)isoindoline-1,3-dione] |
| > 7.00 | 7.14 | COc1cc(N2CCC(N3CCN(c4ccc5c(c4)C(=O)N(C4CCC(=O)NC4=O)C5=O)CC3)CC2)c(-c2cnn(C)c2)cc1Nc1ncc(Cl)c(Nc2ccccc2P(C)(C)=O)n1 (stereo not drawn) [Compound 115, 5-(4-(1-(4-((5-chloro-4-((2-(dimethylphosphoryl)phenyl)amino)pyrimidin-2-yl)amino)-5-methoxy-2-(1-methyl-1H-pyrazol-4-yl)phenyl)piperidin-4-yl)piperazin-1-yl)-2-(2,6-dioxopiperidin-3-yl)isoindoline-1,3-dione] |
| > 7.00 | 7.60 | COc1cc(N2CCN(C[C@H]3CCN(c4ccc5c(c4)C(=O)N(C4CCC(=O)NC4=O)C5=O)C3)CC2)c(-c2cnn(C)c2)cc1Nc1ncc(Cl)c(Nc2ccccc2P(C)(C)=O)n1 (stereo partly drawn) [Compound 120, 5-((R)-3-((4-(4-((5-chloro-4-((2-(dimethylphosphoryl)phenyl)amino)pyrimidin-2-yl)amino)-5-methoxy-2-(1-methyl-1H-pyrazol-4-yl)phenyl)piperazin-1-yl)methyl)pyrrolidin-1-yl)-2-(2,6-dioxopiperidin-3-yl)isoindoline-1,3-dione] |
| > 7.00 | 7.80 | COc1cc(N2CCN(C[C@H]3CCN(c4ccc5c(c4)C(=O)N(C4CCC(=O)NC4=O)C5=O)C3)CC2)c(-c2cnn(C)c2)cc1Nc1ncc(Br)c(Nc2ccccc2P(C)(C)=O)n1 (stereo partly drawn) [Compound 122, 5-((R)-3-((4-(4-((5-bromo-4-((2-(dimethylphosphoryl)phenyl)amino)pyrimidin-2-yl)amino)-5-methoxy-2-(1-methyl-1H-pyrazol-4-yl)phenyl)piperazin-1-yl)methyl)pyrrolidin-1-yl)-2-(2,6-dioxopiperidin-3-yl)isoindoline-1,3-dione] |
| > 7.00 | 7.29 | COc1cc(N2CCN(CC3CCN(c4ccc(C(=O)NC5CCC(=O)NC5=O)nc4)CC3)CC2)c(-c2cnn(C)c2)cc1Nc1ncc(Br)c(Nc2ccc(-c3ccccc3)cc2P(C)(C)=O)n1 (stereo not drawn) [Compound 123, 5-(4-((4-(4-((5-bromo-4-((3-(dimethylphosphoryl)-[1,1′-biphenyl]-4-yl)amino)pyrimidin-2-yl)amino)-5-methoxy-2-(1-methyl-1H-pyrazol-4-yl)phenyl)piperazin-1-yl)methyl)piperidin-1-yl)-N-(2,6-dioxopiperidin-3-yl)picolinamide] |
| > 7.00 | 7.15 | COc1cc(N2CCN(CC3CCN(c4ccc(C(=O)NC5CCC(=O)NC5=O)nc4)CC3)CC2)c(-c2cnn(C)c2)cc1Nc1ncc(Cl)c(Nc2ccc(-c3ccccc3)cc2P(C)(C)=O)n1 (stereo not drawn) [Compound 124, 5-(4-((4-(4-((5-chloro-4-((3-(dimethylphosphoryl)-[1,1′-biphenyl]-4-yl)amino)pyrimidin-2-yl)amino)-5-methoxy-2-(1-methyl-1H-pyrazol-4-yl)phenyl)piperazin-1-yl)methyl)piperidin-1-yl)-N-(2,6-dioxopiperidin-3-yl)picolinamide] |
| > 7.00 | 7.72 | COc1cc(N2CCN(CC3CCN(c4ccc5c(c4)C(=O)N(C4CCC(=O)NC4=O)C5=O)CC3)CC2)c(-c2cnn(C)c2)cc1Nc1ncc(Br)c(Nc2ccccc2P(C)(C)=O)n1 (stereo not drawn) [Compound 127, 5-(4-((4-(4-((5-bromo-4-((2-(dimethylphosphoryl)phenyl)amino)pyrimidin-2-yl)amino)-5-methoxy-2-(1-methyl-1H-pyrazol-4-yl)phenyl)piperazin-1-yl)methyl)piperidin-1-yl)-2-(2,6-dioxopiperidin-3-yl)isoindoline-1,3-dione] |
| > 7.00 | 7.60 | COc1cc(N2CCN(CC3CCN(c4ccc5c(c4)C(=O)N(C4CCC(=O)NC4=O)C5=O)CC3)CC2)c(-c2cnn(C)c2)cc1Nc1ncc(Cl)c(Nc2ccccc2P(C)(C)=O)n1 (stereo not drawn) [Compound 128, 5-(4-((4-(4-((5-chloro-4-((2-(dimethylphosphoryl)phenyl)amino)pyrimidin-2-yl)amino)-5-methoxy-2-(1-methyl-1H-pyrazol-4-yl)phenyl)piperazin-1-yl)methyl)piperidin-1-yl)-2-(2,6-dioxopiperidin-3-yl)isoindoline-1,3-dione] |
| 6.30 to 7.00 | 6.90 | COc1cc(N2CCC3(CCN(Cc4cccc(NC5CCC(=O)NC5=O)c4)CC3)CC2)c(-c2cnn(C)c2)cc1Nc1ncc(Br)c(Nc2ccc(-c3ccccc3)cc2P(C)(C)=O)n1 (stereo not drawn) [Compound 129, 3-((3-((9-(4-((5-bromo-4-((3-(dimethylphosphoryl)-[1,1′-biphenyl]-4-yl)amino)pyrimidin-2-yl)amino)-5-methoxy-2-(1-methyl-1H-pyrazol-4-yl)phenyl)-3,9-diazaspiro[5.5]undecan-3-yl)methyl)phenyl)amino)piperidine-2,6-dione] |
| 6.30 to 7.00 | 6.93 | COc1cc(N2CCC3(CCN(Cc4cccc(NC5CCC(=O)NC5=O)c4)CC3)CC2)c(-c2cnn(C)c2)cc1Nc1ncc(Cl)c(Nc2ccc(-c3ccccc3)cc2P(C)(C)=O)n1 (stereo not drawn) [Compound 130, 3-((3-((9-(4-((5-chloro-4-((3-(dimethylphosphoryl)-[1,1′-biphenyl]-4-yl)amino)pyrimidin-2-yl)amino)-5-methoxy-2-(1-methyl-1H-pyrazol-4-yl)phenyl)-3,9-diazaspiro[5.5]undecan-3-yl)methyl)phenyl)amino)piperidine-2,6-dione] |
| 6.30 to 7.00 | 6.67 | COc1cc(N2CCC(CN3CCN(c4ccc(N5CCC(=O)NC5=O)cc4)CC3)CC2)c(-c2cnn(C)c2)cc1Nc1ncc(Cl)c(Nc2ccc(C3CC3)cc2P(C)(C)=O)n1 [Compound 131, 1-(4-(4-((1-(4-((5-chloro-4-((4-cyclopropyl-2-(dimethylphosphoryl)phenyl)amino)pyrimidin-2-yl)amino)-5-methoxy-2-(1-methyl-1H-pyrazol-4-yl)phenyl)piperidin-4-yl)methyl)piperazin-1-yl)phenyl)dihydropyrimidine-2,4(1H,3H)-dione] |
| 6.30 to 7.00 | 6.53 | COc1cc(N2CCC(CN3CCN(c4ccc(N5CCC(=O)NC5=O)cc4)CC3)CC2)c(-c2cnn(C)c2)cc1Nc1ncc(Cl)c(Nc2ccccc2P(C)(C)=O)n1 [Compound 132, 1-(4-(4-((1-(4-((5-chloro-4-((2-(dimethylphosphoryl)phenyl)amino)pyrimidin-2-yl)amino)-5-methoxy-2-(1-methyl-1H-pyrazol-4-yl)phenyl)piperidin-4-yl)methyl)piperazin-1-yl)phenyl)dihydropyrimidine-2,4(1H,3H)-dione] |
| > 7.00 | 7.09 | COc1cc(N2CCC(CN3CCN(c4ccc(C5CCC(=O)NC5=O)cc4)CC3)CC2)c(-c2cnn(C)c2)cc1Nc1ncc(Cl)c(Nc2ccccc2P(C)(C)=O)n1 (stereo not drawn) [Compound 135, 3-(4-(4-((1-(4-((5-chloro-4-((2-(dimethylphosphoryl)phenyl)amino)pyrimidin-2-yl)amino)-5-methoxy-2-(1-methyl-1H-pyrazol-4-yl)phenyl)piperidin-4-yl)methyl)piperazin-1-yl)phenyl)piperidine-2,6-dione] |
